Data as given in ChEMBL document CHEMBL1201862, “PubChem BioAssay data set” (2004).
The source made the active and inactive calls.

How the values were obtained:
[1] = target: T1, Neuropeptides B/W receptor type 1 (Homo sapiens, UniProt P48145); assay: GPR7 antagonist potency, late-stage follow-up, cell-based, fluorescence, dose response (AID 463251); format: functional
T1 sequence (P48145 whole entry): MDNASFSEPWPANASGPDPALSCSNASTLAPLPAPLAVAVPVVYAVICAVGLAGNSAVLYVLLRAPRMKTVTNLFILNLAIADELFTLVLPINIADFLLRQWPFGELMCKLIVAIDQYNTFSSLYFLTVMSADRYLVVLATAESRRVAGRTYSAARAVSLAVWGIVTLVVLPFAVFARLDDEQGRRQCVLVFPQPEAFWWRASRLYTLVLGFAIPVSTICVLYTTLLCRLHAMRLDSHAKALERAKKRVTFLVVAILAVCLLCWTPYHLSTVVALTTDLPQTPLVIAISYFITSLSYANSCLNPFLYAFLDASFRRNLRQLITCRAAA

[2] = target: Melanin-concentrating hormone receptor 1 (Homo sapiens, UniProt Q99705); assay: Late-stage fluorescence-based counterscreen for antagonists of the G-protein coupled receptor 7 (GPR7): cell-based dose response assay to identify antagonists of the melanin-concentrating hormone receptor 1 (MCHR1). [Related pubchem assays (depositor defined):AID1861, AID1880, AID1952, AID2148, AID2251, AID2257, AID485339]; format: functional;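 also: stimulated with 30 nM MCH peptide agonist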
[3] = target: Peroxisome proliferator-activated receptor gamma/Nuclear receptor coactivator 2 (Homo sapiens, UniProt P37231); assay: (§1) TR-FRET dose response biochemical High Throughput Screening assay for agonists of the steroid receptor coactivator 2 (SRC-2) recruitment by the peroxisome proliferator-activated receptor gamma (PPAR gamma): non-selective agonists. [Related pubchem assays: 1297, 1032 ]; format: functional
[4] = target: Peroxisome proliferator-activated receptor gamma/Nuclear receptor coactivator 1 (Homo sapiens, UniProt P37231); assay: as §1, with “1 (SRC-1)” for “2 (SRC-2)”, “assays (depositor defined):AID1300, AID1808, AID504735, AID631]” for “assays: 1297, 1032 ]”; format: protein assay
[5] = target: Estrogen receptor beta (Homo sapiens, UniProt Q92731);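 also: recombinant ER-beta bound to coactivator SRC1 peptide in presence of estradiol agonist; inhibitors block coactivator peptide binding and lower the FRET signal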
[6] = target: Bcl-2-like protein 10 (Homo sapiens, UniProt Q9HD36); assay: displacers of TR3 peptide from Bcl-B, primary screen, selectivity assay for Bfl-1 inhibitor project, biochemical, fluorescence polarization, FITC-TR3 peptide (AID 748);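 also: fluorescence polarization from a fluorescein-labelled TR3 peptide binding purified Bcl-B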
[7] = target: Peroxisome proliferator-activated receptor gamma/Nuclear receptor coactivator 3 (Homo sapiens, UniProt P37231); assay: as §1, with “3 (SRC-3)” for “2 (SRC-2)”, “1301 (Confirmation screen.), 1048 (Primary screen.)]” for “1297, 1032 ]”; format: functional
[8] = target: Mitogen-activated protein kinase 10 (Homo sapiens, UniProt P53779); assay: Dose response biochemical screening assay for inhibitors of c-Jun N-Terminal Kinase 3 (JNK3). [Related pubchem assays: 746 ]
[9] = target: Metabotropic glutamate receptor 4 (Rattus norvegicus, UniProt P31423); assay: Modulation of the Metabotropic Glutamate Receptor mGluR4: Rat PAM Potency. [Related pubchem assays (depositor defined):AID2437, AID2807]; format: functional
[10] = inhibitors of SNCA 5'UTR-driven translation, confirmation, luminescence, H4 neuroglioblastoma cells, dose confirmation (AID 2454); format: functional, cell-based;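 also: H4 neuroglioblastoma cells carrying an alpha-synuclein 5'UTR luciferase reporter; potency for inhibition of the luciferase signal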
[11] = luciferase reporter signal reduction – luminescence, H4-C neuroglioblastoma cells, dose response (AID 2458); format: functional, cell-based;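 also: H4 neuroglioblastoma cells stably carrying a luciferase reporter gene fusion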
[12] = inhibitors of firefly luciferase expression or activity, dose response, H4 neuroglioma cells, luminescence (AID 1990); format: functional, cell-based
[13] = inhibitors of SNCA 5'UTR-driven reporter translation, confirmation, H4 neuroglioma cells, luminescence (AID 1988); format: functional, cell-based
[14] = Luminescence-based dose response cell-based high throughput screening assay for cytotoxic compounds using the IEC-6 intestinal epithelial cell line. [Related pubchem assays: 1858 (Summary AID.), 1825 (Counterscreen.), 1907 (Confirmation screen.)]; format: functional
[15] = cells; format: functional, cell-based
[16] = tested on: BJ; assay: cells; format: functional, cell-based; conditions: Homo sapiens
[17] = cytotoxicity toward DRD oncogenic fibroblasts, dose response, cell-based, non-viral oncogenic, luminescence (AID 1934); format: functional; conditions: Homo sapiens
[18] = tested on: BJ; assay: cytotoxicity toward BJ-TERT fibroblasts, dose response, cell-based, RAS-independent, luminescence (AID 1933); format: functional; conditions: Homo sapiens
[19] = tested on: BJ; assay: cytotoxicity toward BJ-TERT-LT-ST fibroblasts, dose response, cell-based, RAS-independent, luminescence (AID 1935); format: functional; conditions: Homo sapiens;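 also: BJ fibroblasts immortalized with TERT plus LT and ST oncogenes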
[20] = Luminescence Cell-Based Dose Response HTS to Identify Inhibitors of 5'UTR Stem-Loop Driven Prion Protein mRNA Translation in H4 Neuroglioblastoma Cells. [Related pubchem assays: 1827 (Project Summary), 1813 (Primary HTS)]; format: functional
[21] = target: NACHT, LRR and PYD domains-containing protein 3 (Homo sapiens, UniProt Q96P20); assay: NALP3 inhibitors in yeast, dose response, luminescent (AID 488799); format: functional
[22] = NIH-3T3 fibroblast cytotoxicity, dose response, cytotoxicity control, cell-based, fluorescence, Alamar Blue, secondary assay (AID 2327); format: functional;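 also: NIH-3T3 mouse fibroblasts cultured with fluconazole at 8 µg/mL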
[23] = C. albicans growth with fluconazole, confirmation, fluorescence, retest (AID 2467); format: functional, cell-based
[24] = target: Glucose-6-phosphate 1-dehydrogenase (Homo sapiens, UniProt P11413); assay: human G6PD enzyme inhibitors, dose response, selectivity assay for P. falciparum G6PD inhibitor project, biochemical, fluorescence (AID 504792); format: functional
[25] = target: Genome polyprotein (dengue virus type 2, UniProt P29990); assay: Dengue-2 NS5 methyltransferase inhibitors, primary screen, biochemical, confirmation dose response (AID 588689); format: functional
[26] = target: Troponin, cardiac muscle (Homo sapiens, UniProt P19429+P45379+P63316); assay: inhibitors of cardiac thin filament calcium sensitivity, dose response, biochemical, fluorescence, cardiac regulated thin filaments, triplicate IC50 (AID 504742); format: protein-complex assay
[27] = target: ORF 73 (Human herpesvirus 8, UniProt O40947); assay: inhibitors of C-LANA binding to LBS DNA, dose response, biochemical, fluorescence polarization, cherry-picked samples (AID 504725); design: species or system Human gammaherpesvirus 8;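 also: fluorescence polarization of a labeled DNA duplex reporting LANA DNA binding; potency is for inhibitors that block LANA binding to the DNA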
[28] = tested on: HeLa; assay: HeLa cell cytotoxicity, dose response, cytotoxicity control, 24 h, cherry-picked samples (AID 504726); format: functional, cell-based; conditions: Homo sapiens;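 also: potency for cytotoxicity as loss of luminescence signal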
[29] = target: Induced myeloid leukemia cell differentiation protein Mcl-1 (Homo sapiens, UniProt Q07820); format: functional
[30] = target: Transitional endoplasmic reticulum ATPase (Homo sapiens, UniProt P55072); assay: p97 ATPase inhibitors, dose response, biochemical (AID 1534)
[31] = target: Transitional endoplasmic reticulum ATPase (Homo sapiens, UniProt P55072, C522A); assay: C522A mutant p97 ATPase inhibitors, dose response, counter-screen for p97 inhibitor project, biochemical, luminescence (AID 1544)
[32] = target: G-protein coupled receptor 35 (Homo sapiens, UniProt Q9HC97); assay: GPR35 antagonists blocking zaprinast-driven arrestin recruitment, primary screen, imaging, U2OS, beta-arrestin-GFP, zaprinast agonist (AID 2058); format: functional;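 also: antagonist potency meaning inhibition of agonist-induced arrestin redistribution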
[33] = target: Beta-lactamase (Salmonella choleraesuis (strain SC-B67), UniProt Q5J463)
[34] = target: Beta-lactamase (Pseudomonas aeruginosa, UniProt Q79MP6);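 also: biochemical dose-response test of metallo-beta-lactamase enzyme inhibition, read out by epi-absorbance; purified recombinant IMP-1 metallo-beta-lactamase with nitrocefin as substrate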
[35] = target: Keap1/Nrf2 (Homo sapiens, UniProt Q14145); assay: Keap1-Nrf2 protein-protein interaction inhibitors, dose response, biochemical, fluorescence polarization, cherry-picked samples (AID 588683)
[36] = target: T2, Streptokinase A (Streptococcus pyogenes serotype M1, UniProt P10520); assay: S. pyogenes streptokinase expression inhibitors, potency, dose response, plasminogen activation absorbance, OD405 (AID 1914); format: functional, Streptococcus pyogenes M1 GAS;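 also: secreted streptokinase activity via plasminogen activation per viability signal from cell pellet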
T2 sequence (P10520 whole entry): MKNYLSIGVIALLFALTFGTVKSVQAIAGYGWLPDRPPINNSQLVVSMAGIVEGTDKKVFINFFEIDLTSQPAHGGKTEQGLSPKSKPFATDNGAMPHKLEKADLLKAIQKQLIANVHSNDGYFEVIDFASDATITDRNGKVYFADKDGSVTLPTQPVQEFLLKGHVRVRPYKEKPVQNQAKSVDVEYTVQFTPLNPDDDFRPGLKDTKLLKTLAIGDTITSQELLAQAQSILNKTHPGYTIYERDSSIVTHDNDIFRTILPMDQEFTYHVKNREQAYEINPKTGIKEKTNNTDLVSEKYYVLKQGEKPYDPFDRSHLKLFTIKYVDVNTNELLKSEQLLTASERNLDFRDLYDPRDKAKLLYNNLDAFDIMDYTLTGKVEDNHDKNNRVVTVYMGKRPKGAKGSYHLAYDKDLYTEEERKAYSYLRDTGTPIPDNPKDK

[37] = Absorbance Microorganism-Based Dose Response Follow up to Identify Inhibitors of Streptokinase Expression. [Related pubchem assays: 1677 (Project Summary), 1915, 1914, 1902 (Retest at Dose), 1900 (Counter Screen), 1662 (Primary HTS)]
[38] = target: T2, Streptokinase A; assay: Absorbance Microorganism-Based Dose Response Follow up to Identify Inhibitors of Streptokinase Expression. [Related pubchem assays: 1677 (Project Summary), 1915, 1914, 1902 (Retest at Dose), 1900 (Counter Screen), 1662 (Primary HTS)]; format: functional, Streptococcus pyogenes M1 GAS
[39] = tested on: Streptococcus; assay: Streptococcus pyogenes growth inhibition counter-screen, dose response, counter-screen for streptokinase expression inhibitor project, luminescence, BacTiter-Glo, strain UMAA2166 (AID 2477); format: functional, organism-based
[40] = tested on: Streptococcus sp. 'group A'; assay: growth inhibition of control SK(-) GAS strain, dose response, counter-screen for streptokinase expression inhibitor project, luminescence, kanamycin, BacTiterGlo, confirmation (AID 1900); format: functional, organism-based
[41] = tested on: Streptococcus; assay: Group A Streptococcus viability loss, dose response, counter-screen for streptokinase expression inhibitor project, luminescence, BacTiterGlo (AID 1915); format: functional, organism-based;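 also: potency for reduction of bacterial viability or growth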
[42] = tested on: Streptococcus; assay: Luminescence Microorganism-Based Dose Response Follow up to Identify Compounds Cytotoxic to Streptococcus. [Related pubchem assays: 1677 (Project Summary), 1915, 1914, 1902 (Retest at Dose), 1900 (Counter Screen), 1662 (Primary HTS)]; format: functional, organism-based
[43] = tested on: J774.A1; assay: Confirmation of image-based Screening Assay for Inhibitors of Phagocytosis. [Related pubchem assays (depositor defined):AID1029, AID1643]; format: functional, cell-based; conditions: Mus musculus
[44] = target: Cytochrome P450 2D6 (Homo sapiens, UniProt P10635);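 also: CYP2D6 member of a cytochrome P450 panel assay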
[45] = target: Cytochrome P450 2C9 (Homo sapiens, UniProt P11712)
[46] = target: Lysosomal acid glucosylceramidase (Homo sapiens, UniProt P04062); assay: Dose response cell-based high throughput screening assay to identify enhancers of beta-glucosidase activity. [Related pubchem assays: 784 ]; format: functional
[47] = target: Cytochrome P450 2C19 (Homo sapiens, UniProt P33261); assay: Cytochrome panel assay with activity outcomes. Panel member name: p450-cyp2c19 Compounds with AC50 equal or less than 10 uM are considered active; format: functional

Sequence of Keap1/Nrf2 (Q16236 whole entry): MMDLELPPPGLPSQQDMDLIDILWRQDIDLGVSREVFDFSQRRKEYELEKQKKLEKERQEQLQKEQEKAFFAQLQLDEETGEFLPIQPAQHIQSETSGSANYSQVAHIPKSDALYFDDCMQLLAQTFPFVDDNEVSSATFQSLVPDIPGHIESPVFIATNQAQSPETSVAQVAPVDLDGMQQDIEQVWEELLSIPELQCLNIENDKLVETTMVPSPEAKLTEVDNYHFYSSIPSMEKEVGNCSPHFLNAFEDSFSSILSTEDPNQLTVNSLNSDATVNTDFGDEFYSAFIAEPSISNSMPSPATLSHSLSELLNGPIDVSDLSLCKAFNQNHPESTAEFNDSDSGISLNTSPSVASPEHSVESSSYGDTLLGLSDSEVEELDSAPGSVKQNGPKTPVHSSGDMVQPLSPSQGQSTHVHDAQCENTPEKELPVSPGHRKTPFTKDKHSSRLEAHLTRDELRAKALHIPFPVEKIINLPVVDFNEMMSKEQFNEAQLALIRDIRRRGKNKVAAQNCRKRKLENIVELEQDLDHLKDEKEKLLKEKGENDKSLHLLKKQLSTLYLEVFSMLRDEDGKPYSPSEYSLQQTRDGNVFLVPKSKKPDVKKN
Sequence of Keap1/Nrf2 (Q14145 whole entry): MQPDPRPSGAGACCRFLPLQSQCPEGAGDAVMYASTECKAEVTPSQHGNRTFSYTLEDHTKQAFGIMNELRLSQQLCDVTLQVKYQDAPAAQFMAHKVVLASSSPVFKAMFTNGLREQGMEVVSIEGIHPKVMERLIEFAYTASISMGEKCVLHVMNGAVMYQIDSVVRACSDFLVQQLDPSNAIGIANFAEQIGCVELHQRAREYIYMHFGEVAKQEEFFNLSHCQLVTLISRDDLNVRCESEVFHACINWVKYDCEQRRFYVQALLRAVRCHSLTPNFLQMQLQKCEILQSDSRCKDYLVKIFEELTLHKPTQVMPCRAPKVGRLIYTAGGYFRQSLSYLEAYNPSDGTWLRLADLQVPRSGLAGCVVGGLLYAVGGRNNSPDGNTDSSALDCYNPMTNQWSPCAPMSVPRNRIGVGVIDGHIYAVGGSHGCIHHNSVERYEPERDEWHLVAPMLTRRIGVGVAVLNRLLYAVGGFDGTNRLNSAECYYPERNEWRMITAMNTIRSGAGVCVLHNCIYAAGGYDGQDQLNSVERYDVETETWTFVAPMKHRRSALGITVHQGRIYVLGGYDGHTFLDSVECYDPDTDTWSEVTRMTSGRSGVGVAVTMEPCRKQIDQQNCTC
Sequence of Genome polyprotein (P29990 2492-3391 limits assumed): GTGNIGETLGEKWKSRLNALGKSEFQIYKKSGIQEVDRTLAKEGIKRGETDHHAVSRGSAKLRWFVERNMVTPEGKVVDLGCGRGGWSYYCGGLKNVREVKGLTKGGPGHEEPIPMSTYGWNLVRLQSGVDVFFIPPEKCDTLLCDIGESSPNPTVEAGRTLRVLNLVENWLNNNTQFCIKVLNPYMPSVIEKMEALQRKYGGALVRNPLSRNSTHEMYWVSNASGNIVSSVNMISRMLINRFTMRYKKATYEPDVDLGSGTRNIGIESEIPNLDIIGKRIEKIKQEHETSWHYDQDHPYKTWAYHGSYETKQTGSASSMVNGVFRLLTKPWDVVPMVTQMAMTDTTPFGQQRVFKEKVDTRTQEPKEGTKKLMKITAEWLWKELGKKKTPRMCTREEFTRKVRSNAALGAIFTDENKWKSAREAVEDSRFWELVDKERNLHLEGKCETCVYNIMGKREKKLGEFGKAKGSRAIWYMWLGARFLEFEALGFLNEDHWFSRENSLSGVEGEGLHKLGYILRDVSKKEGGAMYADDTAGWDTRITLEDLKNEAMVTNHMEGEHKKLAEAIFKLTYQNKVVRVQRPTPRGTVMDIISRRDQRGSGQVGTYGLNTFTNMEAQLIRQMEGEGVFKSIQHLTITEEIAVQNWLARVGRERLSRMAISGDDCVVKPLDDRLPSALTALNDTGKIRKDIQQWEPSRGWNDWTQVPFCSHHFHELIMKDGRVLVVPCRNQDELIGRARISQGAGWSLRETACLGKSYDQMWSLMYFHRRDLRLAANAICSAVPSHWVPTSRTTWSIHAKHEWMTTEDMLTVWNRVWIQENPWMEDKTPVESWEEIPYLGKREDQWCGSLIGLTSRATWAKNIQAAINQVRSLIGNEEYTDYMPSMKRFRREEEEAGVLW
Sequence of Melanin-concentrating hormone receptor 1 (Q99705 whole entry): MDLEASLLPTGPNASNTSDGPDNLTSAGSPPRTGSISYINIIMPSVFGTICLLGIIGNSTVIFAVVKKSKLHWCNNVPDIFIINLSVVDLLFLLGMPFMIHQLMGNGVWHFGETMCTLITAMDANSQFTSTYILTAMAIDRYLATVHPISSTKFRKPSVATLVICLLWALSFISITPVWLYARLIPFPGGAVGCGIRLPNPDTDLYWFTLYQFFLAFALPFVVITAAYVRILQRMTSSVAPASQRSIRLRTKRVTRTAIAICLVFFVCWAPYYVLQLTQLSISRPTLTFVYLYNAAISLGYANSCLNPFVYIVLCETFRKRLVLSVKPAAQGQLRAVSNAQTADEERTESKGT
Sequence of Beta-lactamase (Salmonella choleraesuis (strain SC-B67), UniProt Q5J463) (Q5J463 whole entry): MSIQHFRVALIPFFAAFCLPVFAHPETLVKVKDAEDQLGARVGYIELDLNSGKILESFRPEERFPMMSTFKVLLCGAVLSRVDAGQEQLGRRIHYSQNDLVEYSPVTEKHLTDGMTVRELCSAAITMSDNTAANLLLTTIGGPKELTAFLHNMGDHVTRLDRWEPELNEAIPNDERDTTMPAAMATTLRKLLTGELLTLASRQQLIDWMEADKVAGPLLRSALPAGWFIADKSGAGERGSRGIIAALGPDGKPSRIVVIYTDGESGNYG
Sequence of Estrogen receptor beta (Q92731 whole entry): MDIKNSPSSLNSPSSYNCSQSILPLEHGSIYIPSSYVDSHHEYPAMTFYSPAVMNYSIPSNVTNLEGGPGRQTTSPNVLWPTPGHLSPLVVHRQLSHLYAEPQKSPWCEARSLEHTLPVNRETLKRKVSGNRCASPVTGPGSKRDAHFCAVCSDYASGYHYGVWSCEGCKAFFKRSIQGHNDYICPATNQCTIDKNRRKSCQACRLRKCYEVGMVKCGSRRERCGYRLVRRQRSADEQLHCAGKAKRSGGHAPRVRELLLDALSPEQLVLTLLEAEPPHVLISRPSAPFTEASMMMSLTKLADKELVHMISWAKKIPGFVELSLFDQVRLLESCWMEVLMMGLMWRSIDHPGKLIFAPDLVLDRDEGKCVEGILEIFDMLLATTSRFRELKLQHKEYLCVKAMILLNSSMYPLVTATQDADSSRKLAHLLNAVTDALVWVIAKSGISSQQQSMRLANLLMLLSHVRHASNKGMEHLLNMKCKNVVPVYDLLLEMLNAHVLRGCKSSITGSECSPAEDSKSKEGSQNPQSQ
Sequence of G-protein coupled receptor 35 (Q9HC97 whole entry): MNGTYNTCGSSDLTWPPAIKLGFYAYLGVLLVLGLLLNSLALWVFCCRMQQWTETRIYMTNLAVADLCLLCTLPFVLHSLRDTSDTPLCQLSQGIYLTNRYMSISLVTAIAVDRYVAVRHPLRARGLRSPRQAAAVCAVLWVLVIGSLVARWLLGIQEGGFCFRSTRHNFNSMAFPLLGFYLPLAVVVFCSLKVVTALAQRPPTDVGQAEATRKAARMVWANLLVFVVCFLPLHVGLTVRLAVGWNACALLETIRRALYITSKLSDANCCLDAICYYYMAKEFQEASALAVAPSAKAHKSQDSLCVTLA
Sequence of Cytochrome P450 2C9 (P11712 whole entry): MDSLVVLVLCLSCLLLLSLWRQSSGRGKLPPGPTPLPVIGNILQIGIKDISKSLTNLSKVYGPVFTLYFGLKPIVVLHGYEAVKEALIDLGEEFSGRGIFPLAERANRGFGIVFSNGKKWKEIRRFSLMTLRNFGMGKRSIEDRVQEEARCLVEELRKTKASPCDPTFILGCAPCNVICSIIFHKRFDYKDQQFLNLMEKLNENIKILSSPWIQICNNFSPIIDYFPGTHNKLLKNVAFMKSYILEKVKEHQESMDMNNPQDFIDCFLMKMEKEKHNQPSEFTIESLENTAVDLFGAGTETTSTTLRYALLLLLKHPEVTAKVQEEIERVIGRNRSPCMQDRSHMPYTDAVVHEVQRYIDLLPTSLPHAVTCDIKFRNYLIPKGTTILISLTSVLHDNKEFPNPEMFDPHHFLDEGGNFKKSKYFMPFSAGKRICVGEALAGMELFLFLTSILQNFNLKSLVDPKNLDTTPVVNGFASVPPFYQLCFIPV
Sequence of Mitogen-activated protein kinase 10 (P53779 whole entry): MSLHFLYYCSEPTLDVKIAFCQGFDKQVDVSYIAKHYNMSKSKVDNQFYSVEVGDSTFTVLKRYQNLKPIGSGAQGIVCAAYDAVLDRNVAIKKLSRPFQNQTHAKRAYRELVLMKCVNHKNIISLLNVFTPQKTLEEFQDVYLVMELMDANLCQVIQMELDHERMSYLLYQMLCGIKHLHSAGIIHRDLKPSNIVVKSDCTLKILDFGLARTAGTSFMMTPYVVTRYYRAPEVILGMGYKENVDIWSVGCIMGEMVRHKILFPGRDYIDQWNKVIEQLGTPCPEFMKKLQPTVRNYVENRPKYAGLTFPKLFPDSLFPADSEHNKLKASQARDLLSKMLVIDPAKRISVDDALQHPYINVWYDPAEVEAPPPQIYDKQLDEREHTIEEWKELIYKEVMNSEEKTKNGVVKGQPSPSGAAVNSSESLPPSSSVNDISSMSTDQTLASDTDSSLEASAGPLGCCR
Sequence of Bcl-2-like protein 10 (Q9HD36 whole entry): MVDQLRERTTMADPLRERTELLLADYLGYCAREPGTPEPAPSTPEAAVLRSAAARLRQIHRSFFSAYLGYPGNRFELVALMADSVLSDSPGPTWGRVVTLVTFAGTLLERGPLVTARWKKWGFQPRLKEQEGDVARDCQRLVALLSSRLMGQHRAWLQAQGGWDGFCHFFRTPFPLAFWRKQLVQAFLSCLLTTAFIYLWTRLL

## COC(=O)c1ccc(-n2ncc(Cl)c(Oc3ccc(OC)cc3)c2=O)cc1
[1]
  IC50: 4.1 µM (active)
[2]
  IC50: > 20 µM (inactive)

## CC(=O)c1sc2nc(SCC(=O)N3CCCCC3)[nH]c(=O)c2c1C
[3]
  EC50: > 79.4 µM (not active)
[4]
  EC50: > 79.4 µM (inactive)
[5]
  IC50: 14.6 µM (active)
[6]
  IC50: > 100 µM (inactive)
[7]
  EC50: > 79.4 µM (not active)
[8]
  IC50: > 93.1 µM (not active)

## O=C(Nc1ccc(N2C(=O)[C@H]3CCCC[C@@H]3C2=O)c(Cl)c1)c1ccccn1
[9]
  EC50: 0.65 µM (active)

## COc1cc(-c2noc(C)c2/C=C/c2ccc(N)cc2)cc(OC)c1OC
[10]
  EC50: 0.335 µM (active)
[11]
  EC50: 0.509 µM (active)
[12]
  EC50: < 0.1 µM (active)
[13]
  EC50: < 0.1 µM (active)
[14]
  IC50: 0.964 µM (active)
[15]
  EC50: 0.277 µM (active)
[16]
  EC50: 0.469 µM (inconclusive)
[17]
  EC50: 0.362 µM (active)
[18]
  EC50: 0.344 µM (active)
[19]
  EC50: 0.38 µM (inconclusive)
[20]
  EC50: < 0.1 µM (active)

## c1ccc(Sc2cccc3ccccc23)c(CNC2=NCCN2)c1
[21]
  IC50: 11.7 µM (active)
[22]
  EC50: > 150 µM (inactive)
[23]
  EC50: 3.8 µM (active)

## O=C1C=CC2=C3c4cc(O)c(O)cc4CC3(O)COC2=C1O (stereo not drawn)
[24]
  IC50: > 80 µM (inactive)
[25]
  IC50: 26.5 µM (active)
[26]
  IC50: 16.6 µM (inactive)
[27]
  AC50: 40.3 µM (active)
[28]
  AC50: 179 µM (active)

## O=C(O[C@@H]1OC2COC(=O)c3cc(O)c(O)c(O)c3-c3c(cc(O)c(O)c3O)C(=O)O[C@@H]([C@H]1O)[C@@H]2O)c1cc(O)c(O)c(O)c1
[29]
  IC50: 4.48 µM (active)
[26]
  IC50: 0.677 µM (active)
[30]
  IC50: 4.2 µM (active)
[31]
  IC50: > 50 µM (not active)

## O=c1cc(C(F)(F)F)c2cc3c4c(c2o1)CCCN4CCC3
[32]
  IC50: 1.37 µM (active)
[33]
  IC50: 5.57 µM (active)
[34]
  IC50: 78.2 µM (inactive)
[35]
  AC50: 2.8 µM (active)

## CCCOc1ccc(-c2nc(OC)c3ccccc3n2)cc1
[36]
  EC50: 6.02 µM (active)
[37]
  EC50: 4.03 µM (active)
[38]
  EC50: 3.83 µM (active)
[39]
  EC50: > 500 µM (not active)
[40]
  EC50: 17.9 µM (active)
[41]
  EC50: > 150 µM (not active)
[42]
  EC50: > 500 µM (not active)

## COc1ccccc1/C=C/C(=O)OCC(=O)Nc1cc(C(F)(F)F)ccc1N1CCOCC1
[43]
  IC50: > 25 µM (inactive)

## Br.Brc1ccc(C2=Nn3c(nnc3-c3cccnc3)SC2)s1
[44]
  AC50: 4.47 µM (inconclusive)
[45]
  AC50: 22.4 µM (inconclusive)
[46]
  EC50: > 50 µM (not active)
[47]
  AC50: inconclusive
